Where two headings read alike, the source gives them in different places.
Columns and labels:
PTP1B [1] = target: T1, PTP1B (Homo sapiens, UniProt P18031); test: PTP1B in vitro phosphatase assay with pNPP; type: biochemical
T1 construct: purchased Creative Biomart
T1 sequence (P18031 1-435): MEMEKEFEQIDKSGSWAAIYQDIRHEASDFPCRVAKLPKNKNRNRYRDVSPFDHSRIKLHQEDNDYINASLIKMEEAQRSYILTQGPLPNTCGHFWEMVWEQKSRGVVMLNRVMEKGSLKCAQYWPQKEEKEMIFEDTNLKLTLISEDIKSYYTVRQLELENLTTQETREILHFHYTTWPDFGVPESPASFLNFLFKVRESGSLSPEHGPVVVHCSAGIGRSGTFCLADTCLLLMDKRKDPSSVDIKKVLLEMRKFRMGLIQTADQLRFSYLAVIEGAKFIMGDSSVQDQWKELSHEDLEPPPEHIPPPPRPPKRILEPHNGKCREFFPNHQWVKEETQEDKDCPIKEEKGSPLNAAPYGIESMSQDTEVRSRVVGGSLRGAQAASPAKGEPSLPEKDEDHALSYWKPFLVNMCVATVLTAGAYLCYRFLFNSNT
Description: To examine the capacity of RR601 to inhibit protein-tyrosine phosphatase 1B (PTP1B), (Creative Biomart), activity, an in vitro phosphatase assay was adapted from. Assays with and without inhibitor were performed in Corning 96-well clear bottom plates having a non-binding surface, with a total assay volume of 200 μL. The assay buffer contained 100 mM Tris, 100 mM NaCl, 1 mM EDTA at pH 7.0 and 2.2 mM pNPP as the substrate. […] The reaction was initiated upon addition of 4 μL of a 5.0 μM PTP1B stock, which was dispensed to each of the wells except the blanks using a single channel pipette. The resulting PTPB1 concentration in the assay buffer was 0.1 μM. […] Assays were performed in 96-well plates in a similar manner as reported above. The assay buffer contained 50 mM HEPES (pH 7.4), 2 mM EDTA, 3 mM DTT and 100 mM NaCl. An initial experiment was performed to determine the kinetic parameters of the SHP-2 enzyme. The reaction was initiated with the addition of 4 μL of a 0.35 μM stock SHP-2 enzyme into wells containing 0, 1, 3, 9, 27 and 81 μM pNPP. The SHP-2 assay concentration was 7 nM. Absorbance was recorded every 30 s over a ten minute assay period at a temperature of 25 °C (Additional file 1: Fig. S8). Initial velocities were fit to the Michaelis-Menten equation:1 v=VmaxS/Km+S where v is the initial velocity, V max the maximum velocity, K m the Michaelis constant, and [S] the pNPP concentration. […] Assay buffer contained 7.5 mM pNPP, roughly one-half the value of the Michaelis constant determined from the study above. Reactions were initiated with the addition of 4 μL SHP-2 enzyme, resulting in a final assay enzyme concentration of 7 nM.
(§1) Initial rate values obtained from the plate reader were normalized to percent activity relative to the mean negative control rates. Graphpad Prism 6 software was utilized to calculate a non-linear regression (curve fit) using a variable slope model equation, constraining the top and bottom values to 100% activity and 0% activity, respectively, using the following equation:2 vi=Bottom+Top−Bottom/1+10^logIC50−x*HillSlope where v i is the initial rate.

DUSP5 PD(WT) = target: T2, DUSP5 PD(WT) (Homo sapiens, UniProt Q16690); test: DUSP5 PD(WT) in vitro phosphatase assay with pNPP as substrate; type: biochemical
T2 construct: The DUSP5 phosphatase domain (DUSP5 PD(WT)) gene was synthesized by Blue Heron; made in house
T2 sequence (Q16690 178-319 limits assumed): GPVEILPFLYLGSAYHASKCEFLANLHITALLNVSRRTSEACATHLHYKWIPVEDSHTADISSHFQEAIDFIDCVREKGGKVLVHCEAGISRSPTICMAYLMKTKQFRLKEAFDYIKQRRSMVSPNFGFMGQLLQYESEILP
Description: The DUSP5 phosphatase domain (DUSP5 PD(WT)) gene was synthesized by Blue Heron (Bothell, WA) and the protein expressed and purified as previously described. To measure the enzymatic activity of wild type phosphatase domain of DUSP5 {DUSP5 PD(WT)} and the inhibitory capacity of selected compounds, an in vitro phosphatase assay was utilized as previously described. Briefly, assays without and with inhibitors were performed in Greiner 96-well clear bottom plates with a total assay volume of 200 μL. The assay buffer contained 100 mM Tris, 100 mM NaCl, 5 mM MgCl2 • 6H2O and 1 mM dithiothreitol (DTT) at pH 7.5. p-nitrophenyl phosphate (pNPP, Sigma Aldrich) 5 mM was used as the substrate. DUSP5 PD(WT) dephosphorylates pNPP to yield p-nitrophenolate, which absorbs at 405 nm, having an extinction coefficient of 18,000 M^-1 cm^-1. The reaction was initiated by the addition of 4 μL of a 29 μM DUPSP5 PD(WT) enzyme stock and absorbance was monitored at 25 °C over time using a Spectramax M5 microplate reader (Molecular Devices). Blanks contained only buffer and pNPP. Negative controls (without inhibitor) contained assay buffer with pNPP and DUSP5 PD(WT).
Appropriate vehicles were added to the blank and negative control wells. A minimum of three replicate wells was run for each condition and at each inhibitor concentration. The replicate wells were averaged to give a single data point. The reaction was initiated upon addition of 4 μL of a 29 μM enzyme stock which was dispensed to each of the wells except the blanks utilizing a single channel pipette. The resulting DUSP5 PD(WT) concentration in the assay buffer was 0.58 μM. The plate was returned to the plate reader, shaken, and absorbance recorded at 25 °C every thirty seconds over a ten to sixty mins time course. In selected experiments the plate was returned to the plate reader following a 10 mins recording for one or two additional 10 mins absorbance recordings.
as §1
To investigate the mechanism of DUSP5 PD(WT) inhibition by RR601, initial velocity inhibition profiles of RR601 were obtained in a 96-well plate format by measuring DUSP5 PD(WT) initial velocities in assay buffer containing of 1, 3, 9, 27 and 81 mM pNPP and 0, 3, 10, 30 and 75 μM RR601 at each pNPP concentration. Reactions were initiated by the addition of DUSP5 PD(WT) to a final concentration of 0.6 μM in each of the wells, excluding the blank. The data were fitted to a global competitive inhibition model (Graphpad Prism) using the following equation:3 vi=VmaxS/Km1+I/Ki+S where v is the initial velocity, V max the maximum velocity, K m the Michaelis constant, [S] the concentration of pNPP, [I] the concentration of RR601 and K i the inhibition constant.

SHP-2 = target: T3, SHP-2 (Homo sapiens, UniProt Q06124); test: SHP-2 in vitro phosphatase assay with pNPP; type: biochemical
T3 construct: purchased Creative Biomart
T3 sequence (Q06124 1-593): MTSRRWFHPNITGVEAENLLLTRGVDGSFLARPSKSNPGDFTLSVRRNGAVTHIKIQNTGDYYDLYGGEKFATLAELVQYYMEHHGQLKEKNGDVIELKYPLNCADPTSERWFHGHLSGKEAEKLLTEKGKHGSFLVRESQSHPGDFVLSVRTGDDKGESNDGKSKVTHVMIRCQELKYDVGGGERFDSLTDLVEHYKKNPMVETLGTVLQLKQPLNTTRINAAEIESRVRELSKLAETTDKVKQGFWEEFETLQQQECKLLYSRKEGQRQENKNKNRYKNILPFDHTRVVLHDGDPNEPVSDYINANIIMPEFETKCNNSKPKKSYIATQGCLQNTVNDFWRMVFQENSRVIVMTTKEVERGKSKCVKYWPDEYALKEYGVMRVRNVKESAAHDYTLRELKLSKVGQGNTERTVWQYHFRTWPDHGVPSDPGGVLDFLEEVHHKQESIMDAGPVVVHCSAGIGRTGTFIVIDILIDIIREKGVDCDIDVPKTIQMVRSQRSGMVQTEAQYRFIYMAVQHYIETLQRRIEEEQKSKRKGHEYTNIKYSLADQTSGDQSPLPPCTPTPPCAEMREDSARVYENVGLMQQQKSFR
Text: as §1

GST-DUSP5 = target: T4, GST-DUSP5 (Homo sapiens, UniProt Q16690); test: In vitro ERK dephosphorylation (pERK) western blot assay; type: biochemical; details: full-length GST-DUSP5, pERK as substrate; global fit of three experiments
T4 construct: this assay was done with full-length protein (containing both domains), and using pERK as substrate; made in house
T4 sequence (Q16690 1-384): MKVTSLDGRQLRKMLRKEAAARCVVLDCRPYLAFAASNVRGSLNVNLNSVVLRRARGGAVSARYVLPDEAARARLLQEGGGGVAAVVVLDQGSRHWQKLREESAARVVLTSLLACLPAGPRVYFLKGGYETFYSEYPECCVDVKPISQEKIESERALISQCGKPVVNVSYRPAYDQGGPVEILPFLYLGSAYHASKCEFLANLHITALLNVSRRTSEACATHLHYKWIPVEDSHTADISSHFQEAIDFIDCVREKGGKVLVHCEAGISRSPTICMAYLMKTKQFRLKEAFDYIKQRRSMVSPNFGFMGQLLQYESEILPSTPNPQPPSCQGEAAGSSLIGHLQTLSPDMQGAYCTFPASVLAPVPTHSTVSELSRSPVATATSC

[2] = Nephelometry (compound aggregation); type: physicochemical
Description: Nephelometry was performed to determine the relative propensity of the inhibitor compounds to aggregate in solution, based on the light scattering properties of the molecular aggregates. Compound aggregation can lead to artifact inhibitory effects, thus confounding a study of mechanism of inhibition. Compounds were tested for aggregation in a 96-well plate format, final volume 200 μL, using the phosphatase activity assay buffer at pH 7.5 without added pNPP. […] Eight wells were used for blanks and for each compound concentration. Plates were analyzed at two separate gains to determine if the signals were at saturating levels. Progesterone was used as a positive control for compound aggregation. Data were collected using a BMG […] Plus, equipped with a 635 nm laser.

SHP2 = system: SHP2; set-up: method as in PMID 16717135; details: read-out: IC50, SHP2 (reported); cited from earlier work
PTP1B [3] = target: T1, PTP1B; set-up: method as in PMID 16717135; details: read-out: IC50, PTP1B (reported); cited from earlier work

O=S(=O)(O)c1cc(O)c2cccc(/N=N/c3cccc4c(O)cc(S(=O)(=O)O)cc34)c2c1 [RR601]
IC50 (PTP1B [1]; pNPP 2.2 mM, 10 min recording, ± SE, read-out: IC50, PTP1B): 2.1 ± 0.2 µM
Selectivity for PTP1B versus DUSP5 (PTP1B [1]; ratio of IC50 values): 18 fold
IC50 (DUSP5 PD(WT); MP Biomedicals and RR535 stocks exposed to light 90 days, RR601 freshly prepared, pNPP, ± SE, read-out: DUSP5 PD(WT) inhibitor IC50, assay reaction period 15 – 25 min): 36.5 ± 1.5 µM
Vmax of DUSP5 PD(WT), Lineweaver-Burk (DUSP5 PD(WT); in the presence of 3 µM RR601): 0.54 µM/min
Vmax of DUSP5 PD(WT), Lineweaver-Burk (DUSP5 PD(WT); in the presence of 10 µM RR601): 0.61 µM/min
Vmax of DUSP5 PD(WT), Lineweaver-Burk (DUSP5 PD(WT); in the presence of 30 µM RR601): 0.62 µM/min
Vmax of DUSP5 PD(WT), Lineweaver-Burk (DUSP5 PD(WT); in the presence of 75 µM RR601): 0.69 µM/min
Mechanism of DUSP5 PD(WT) inhibition (DUSP5 PD(WT); initial velocity studies varying pNPP and RR601): competitive inhibitor
IC50 (DUSP5 PD(WT); pNPP substrate, read-out: IC50, DUSP5 PD(WT) (summary value)): 36 µM
IC50 (DUSP5 PD(WT); read-out: DUSP5 PD(WT) inhibitor IC50, assay reaction period 0 – 10 min, MP Biomedicals and RR535 stocks exposed to light 90 days, RR601 freshly prepared, pNPP, ± SE): 36.9 ± 3.9 µM
IC50 (DUSP5 PD(WT); read-out: DUSP5 PD(WT) inhibitor IC50, assay reaction period 30 – 40 min, MP Biomedicals and RR535 stocks exposed to light 90 days, RR601 freshly prepared, pNPP, ± SE): 34.5 ± 1.4 µM
Ki (SHP-2; 1-30 mM pNPP, 0-3.0 µM RR601, ± SE, read-out: Ki, SHP-2, global competitive model fit): 0.38 ± 0.05 µM
IC50 (SHP-2; pNPP 7.5 mM, 10 min reaction, ± SE): 1.1 ± 0.1 µM
Mechanism of SHP-2 inhibition (SHP-2; substrate concentrations less than 30 mM): fit best to a competitive inhibition model
IC50 (GST-DUSP5): 4.8 µM

Nc1cccc2c(O)cc(S(=O)(=O)O)cc12 [RR535, 1-amino-5-naphthol-7-sulfonic acid]
Compound aggregation over the concentration range tested (nephelometry) ([2]; 1 to 300 μM, stocks stored in the dark or exposed to room light for seventeen days): little or no measurable aggregation

CC(=O)[C@H]1CC[C@H]2[C@@H]3CCC4=CC(=O)CC[C@]4(C)[C@H]3CC[C@]12C [progesterone, reference compound]
Concentration at which aggregation begins (nephelometry) ([2]; phosphatase assay buffer pH 7.5 without pNPP): approximately 100 μM

O=S(=O)(O)c1ccc2cc(N=Nc3cc(S(=O)(=O)O)c4cccnc4c3O)ccc2c1 [NSC-87877]
Inhibition of PTP1B activity, initially (PTP1B [1]; 0.1 to 300 μM, start of assay): did not initially inhibit
IC50 (PTP1B [1]; pNPP, continuous monitoring over 60 min, read-out: IC50, PTP1B, after 50 mins of the reaction assay): 723 ± 302 µM
IC50 (PTP1B [1]; pNPP, continuous monitoring over 60 min, read-out: IC50, PTP1B, after 60 mins of the reaction assay): 337 ± 130 µM
IC50, DUSP5 PD(WT) (DUSP5 PD(WT); pNPP, at 60 minutes, 0.1 to 300 μM): did not inhibit
IC50 (DUSP5 PD(WT); pNPP, at 60 minutes, 0.1 to 300 μM, read-out: IC50, DUSP5 PD(WT)): > 3000 µM
IC50 (PTP1B [3]): 1.7 µM

Reference: PMC5452347, “Serendipitous discovery of light-induced (In Situ) formation of an Azo-bridged dimeric sulfonated naphthol as a potent PTP1B inhibitor” (BMC Biochemistry, 2017)
